Assay results as given in patent US20240246902A1, “PRODRUGS OF 6-DIAZO-5-OXO-L-NORLEUCINE” (THE JOHNS HOPKINS UNIVERSITY, priority 2021, published 2024).
≈ marks a conversion by molar mass, not a printed value. Read-outs that look alike come from different tables or passages of the source.

Columns and labels:
[1] = Metabolic stability in swine jejunum (gut) tissue homogenate; assay type: in vitro ADME; conditions: prodrug 20 μM, 37° C.
Method: (§1) The representative Compounds of the Disclosure were screened for metabolic stability in swine jejunum/liver tissue homogenates, following our previously reported methods (Zimmermann et al., J. Med. Chem., 61(9):3918-29 (2018); Tenora et al., J. Med. Chem., 62(7):3524-38 (2019)). In brief, freshly collected tissues were homogenized by probe sonication in 9× volume of 0.1 M potassium phosphate buffer over ice. Post homogenization, prodrugs were spiked at a concentration of 20 μM (in triplicate) and incubated in an orbital shaker at 37° C. for 60 min. Final concentration of DMSO in the incubations was 0.2% v/v. At each time point (0, 30, 60 min), 100 μL of sample was precipitated with 300 μL of methanol containing internal standard (IS; losartan: 0.5 μM). […] After centrifugation, 50 μL of supernatant was diluted with 50 μL of water, vortexed and submitted for analysis. Prodrug disappearance over time was measured using liquid chromatography tandem mass spectrometry (LC-MS/MS).
(§2) The processed supernatants were analyzed on a Thermo Scientific Vanquish UPLC system (equipped with Vanquish autosampler, pumps, and column compartment) hyphenated to TSQ Altis mass spectrometer (Thermo Fisher Scientific Inc., Waltham MA). […] The autosampler was operated at 4° C. […] Peak area ratios obtained from peak area counts of analyte and internal standard were used to measure the disappearance of prodrugs.

[2] = Plasma stability, human plasma; assay type: in vitro ADME; conditions: HP = Human Plasma
[3] = Plasma stability, mouse plasma; conditions: MP = Mouse Plasma
[4] = Plasma stability, plasma from CES1KO mice; conditions: CES1KO = Mouse Plasma from CES1KO mice
[5] = Metabolic stability in swine liver tissue homogenate; assay type: in vitro ADME; conditions: prodrug 20 μM, 37° C.
Method: as §1, §2

[6] = Plasma stability, rat plasma; assay type: in vitro ADME; conditions: RP = Rat Plasma
[7] = Plasma stability, pig plasma; assay type: in vitro ADME; conditions: PP = Pig Plasma
P493B lymphoma cells = test: Human tumor cell-to-plasma partitioning assay (DON release in P493B cells); conditions: 10 million cells/mL, prodrug 20 μM, 37° C., 1 h
Method: The human plasma-to-tumor cell partitioning assays were conducted using P493B lymphoma following our previously reported method. […] In brief, cells were cultured in 150 cm^2 T-flasks (Falcon™, USA, Cat. #08-772-48) with RPMI Medium 1640 medium 1× containing L-glutamine (RPMI-1640, Corning®, USA, Cat. #10-040-CV), supplemented with 10% v/v Fetal Bovine Serum (FBS, Gibco™, USA, Cat. #26140079), and 1% v/v antimycotic/antibiotic (Gibco™, USA, Cat. #15240062). Cells were grown at 37° C., in a humidified atmosphere with 5% CO2. Cells were harvested after achieving>80% confluency and centrifuged at 200×g for 5 min at 25° C. The obtained cell pellet was re-suspended in 20 mL of Dulbecco's phosphate-buffered saline (DPBS, Gibco™, USA, Cat. #14-190-144) maintained at 37° C. and cell count was determined using an automated cell counter (Bio-Rad, USA). […] Both plasma and cell pellet fractions were analyzed for intact prodrug and DON levels.
Frozen plasma and cell pellets were thawed on wet ice. […] After centrifugation, 100 μL of the supernatant was diluted with 400 μL of water, and analyzed in LC-MS/MS. […]
The underivatized supernatants/derivatized samples were analyzed on a LC-MS/MS system consisting of Dionex ultra high-performance LC system hyphenated with Q Exactive Focus Orbitrap mass spectrometer (Thermo Fisher Scientific Inc., Waltham, MA). […]

[8] = not told
[9] = mouse, 1 h

Row | Gut Stability (% remaining at 60 min) [1] | Plasma Stability (% remaining at 60 min) [2] | Efflux (Efflux) | Plasma Stability (% remaining at 60 min) [3] | Liver stability (% remaining at 60 min) [5] | Structure (SMILES) | Efflux [8] | further results
1 | 11 ± 1% | 96 ± 3 (HP) % | 23 | 0 ± 0 (MP) % |  | CC(=O)N[C@@H](Cc1c[nH]c2ccccc12)C(=O)N[C@@H](CCC(=O)C=[N+]=[N-])C(=O)OC(C)C [13′, reference compound] |  | solubility (Solubility): 240 µg/mL (≈ 0.544 mM); Plasma Stability (% remaining at 60 min) [4]: 94 ± 1 (ces1KO) %
2 | 76 ± 0% |  |  |  | 23 ± 0% | CC(=O)N[C@@H](CCC(=O)C=[N+]=[N-])C(=O)OC(C)C [Compound 5a, Isopropyl (S)-2-acetamido-6-diazo-5-oxohexanoate] |  | Plasma Stability (% remaining at 60 min) [6]: 0 ± 0 (RP) %; Plasma Stability (% remaining at 60 min) [7]: 105 ± 1 (PP) %; Plasma Stability (% remaining at 60 min) [4]: 89 ± 2 (ces1KO) %
3 | 100 ± 1% |  | 2 |  | 93 ± 1% | CN(C)CC(=O)N[C@@H](CCC(=O)C=[N+]=[N-])C(=O)OC(C)(C)C [Compound 5h, tert-Butyl (S)-6-diazo-2-(2-(dimethylamino)acetamido)-5-oxohexanoate] |  | P493B cells (DON release; nmol/g) (P493B lymphoma cells): Undetectable
4 | 79 ± 4% | 101 ± 0 (HP) % | 33 | 68 ± 2 (MP) % | 80 ± 3% | CN(C)CC(=O)N[C@@H](Cc1c[nH]c2ccccc12)C(=O)N[C@@H](CCC(=O)C=[N+]=[N-])C(=O)OC(C)(C)C [Compound 11b, tert-Butyl (S)-6-diazo-2-((S)-2-(2-(dimethylamino)acetamido)-3-(1H-indol-3-yl)propanamido)-5-oxohexanoate] |  | Plasma Stability (% remaining at 60 min) [6]: 3 ± 0 (RP) %; solubility (Solubility): 170 µg/mL (≈ 0.341 mM)
5 |  |  |  |  |  | CC(C)(C)OC(=O)[C@H](CCC(=O)C=[N+]=[N-])NC(=O)[C@H](Cc1c[nH]c2ccccc12)NC(=O)C12CCN(CC1)CC2 [Compound 11d, tert-Butyl (S)-2-((S)-3-(1H-indol-3-yl)-2-(quinuclidine-4-carboxamido)propanamido)-6-diazo-5-oxohexanoate] | 2 | solubility (physchem): 4300 µg/mL (≈ 7.81 mM)
6 |  |  |  |  |  | Cn1cc(C[C@H](NC(=O)C23CCN(CC2)CC3)C(=O)N[C@@H](CCC(=O)C=[N+]=[N-])C(=O)OC(C)(C)C)c2ccccc21 [Compound 12b, tert-Butyl (S)-6-diazo-2-((S)-3-(1-methyl-1H-indol-3-yl)-2-(quinuclidine-4-carboxamido)propanamido)-5-oxohexanoate] | 3.48 | Plasma Stability (% remaining at 60 min) [9]: 92 ± 1 (MP) %; solubility (physchem): 8800 µg/mL (≈ 15.6 mM)
7 |  |  |  |  |  | Cn1cc(C[C@H](NC(=O)C2CN3CCC2CC3)C(=O)N[C@@H](CCC(=O)C=[N+]=[N-])C(=O)OC(C)(C)C)c2ccccc21 (stereo partly drawn) [Compound 12c, tert-Butyl (2S)-6-diazo-2-((2S)-3-(1-methyl-1H-indol-3-yl)-2-(quinuclidine-3-carboxamido)propanamido)-5-oxohexanoate] | 5.37 | 
8 |  |  |  |  |  | Cn1cc(C[C@H](NC(=O)CCCNC(=O)C23CCN(CC2)CC3)C(=O)N[C@@H](CCC(=O)C=[N+]=[N-])C(=O)OC(C)(C)C)c2ccccc21 [Compound 12g, tert-Butyl (S)-6-diazo-2-((S)-3-(1-methyl-1H-indol-3-yl)-2-(4-(quinuclidine-4-carboxamido)butanamido)propanamido)-5-oxohexanoate] | 1 | 
9 |  |  |  |  |  | CC(C)(C)OC(=O)[C@H](CCC(=O)C=[N+]=[N-])NC(=O)CNC(=O)C12CCN(CC1)CC2 [Compound 14d, tert-Butyl (S)-6-diazo-5-oxo-2-(2-(quinuclidine-4-carboxamido)acetamido)hexanoate] | 1.48 | 
10 | 90 ± 1% |  | 48 | 67 ± 1 (MP) % | 81 ± 2% | CN(C)CC(=O)N[C@@H](Cc1ccccc1)C(=O)N[C@@H](CCC(=O)C=[N+]=[N-])C(=O)OC(C)(C)C [Compound 15a, tert-Butyl (S)-6-diazo-2-((S)-2-(2-(dimethylamino)acetamido)-3-phenylpropanamido)-5-oxohexanoate] |  | Plasma Stability (% remaining at 60 min) [4]: 93 ± 1 (ces1KO MP) %
11 |  |  |  |  |  | CC(C)(C)OC(=O)[C@H](CCC(=O)C=[N+]=[N-])NC(=O)[C@H](Cc1ccccc1)NC(=O)C12CCN(CC1)CC2 [Compound 15b, tert-Butyl (S)-6-diazo-5-oxo-2-((S)-3-phenyl-2-(quinuclidine-4-carboxamido)propanamido)hexanoate] | 7.31 | 
12 |  |  | 32.76 | 79 ± 2 (MP) % | 72 ± 0% | CN(C)CC(=O)N[C@@H](Cc1ccc(C(F)(F)F)cc1)C(=O)N[C@@H](CCC(=O)C=[N+]=[N-])C(=O)OC(C)(C)C [Compound 23a, tert-Butyl (S)-6-diazo-2-((S)-2-(2-(dimethylamino)acetamido)-3-(4-(trifluoromethyl)phenyl)propanamido)-5-oxohexanoate] |  | Plasma Stability (% remaining at 60 min) [4]: 70 ± 14 (Ces1KO) %
13 |  | 42 ± 1 (HP) % |  |  |  | COCCOCCOC(=O)[C@H](CCC(=O)C=[N+]=[N-])NC(=O)[C@H](Cc1c[nH]c2ccccc12)NC(=O)CN(C)C [Compound 30b, 2-(2-Methoxyethoxy)ethyl (S)-6-diazo-2-((S)-2-(2-(dimethylamino)acetamido)-3-(1H-indol-3-yl)propanamido)-5-oxohexanoate] |  | 
14 | 79 ± 7% | 100 ± 2 (HP) % | 1 | 6 ± 1 (MP % | 58 ± 2% | CC(=O)N[C@@H](Cc1c[nH]c2ccccc12)C(=O)N[C@@H](CCC(=O)C=[N+]=[N-])C(N)=O [Compound 31a, (S)-2-((S)-2-Acetamido-3-(1H-indol-3-yl)propanamido)-6-diazo-5-oxohexanamide] |  | 

Row | Structure (SMILES) | Gut Stability (% remaining at 60 min) [1] | Plasma Stability (% remaining at 60 min) [2] | Efflux (Efflux) | Plasma Stability (% remaining at 60 min) [3] | Liver stability (% remaining at 60 min) [5] | Efflux [8] | further results
15 | CN(C)CC(=O)NCC(=O)N[C@@H](CCC(=O)C=[N+]=[N-])C(=O)OC(C)(C)C [Compound 14b, tert-Butyl (S)-6-diazo-2-(2-(2-(dimethylamino)acetamido)acetamido)-5-oxohexanoate] | 99 ± 2% | 100 ± 5 (HP) % | 33 | 73 ± 2 (MP) % | 90 ± 0% |  | solubility (Solubility): ~10000 µg/mL (≈ 27.1 mM)
16 | CN(C)CC(=O)N[C@@H](Cc1cccnc1)C(=O)N[C@@H](CCC(=O)C=[N+]=[N-])C(=O)OC(C)(C)C [Compound 17b, tert-Butyl (S)-6-diazo-2-((S)-2-(2-(dimethylamino)acetamido)-3-(pyridin-3-yl)propanamido)-5-oxohexanoate] | 98 ± 1% | 96 ± 3 (HP) % | 57 | 82 ± 6 (MP) % | 91 ± 1% |  | Plasma Stability (% remaining at 60 min) [6]: 33 ± 2 (RP) %; solubility (Solubility): ~10000 µg/mL (≈ 21.7 mM)
17 | CN(C)CC(=O)N[C@H](C(=O)N[C@@H](CCC(=O)C=[N+]=[N-])C(=O)OC(C)(C)C)c1ccccc1 [Compound 19a, tert-Butyl (S)-6-diazo-2-((S)-2-(2-(dimethylamino)acetamido)-2-phenylacetamido)-5-oxohexanoate] |  |  |  |  | 82 ± 0% | 24.37 | 
18 | CN(C)CC(=O)N[C@@H](CCc1ccccc1)C(=O)N[C@@H](CCC(=O)C=[N+]=[N-])C(=O)OC(C)(C)C [Compound 20a, tert-Butyl (S)-6-diazo-2-((S)-2-(2-(dimethylamino)acetamido)-4-phenylbutanamido)-5-oxohexanoate] |  |  | 61.35 | 60 ± 7 (MP) % | 69 ± 1% |  | Plasma Stability (% remaining at 60 min) [4]: 102 ± 2 (ces1KO) %
